{"source": "paper PMC6588435", "about": "(Cell chemical biology, 2019)", "key": {"[1]": {"tested_on": "PAS-resistant Mtb mutant folC (E153G)", "assay_type": "cell-based, Mycobacterium tuberculosis"}, "[2]": {"tested_on": "PAS-resistant Mtb mutant folC (I43T)", "assay_type": "cell-based, Mycobacterium tuberculosis"}, "[3]": {"tested_on": "PAS-resistant Mtb mutant thyX (−16 C->T)", "assay_type": "cell-based, Mycobacterium tuberculosis"}, "[4]": {"tested_on": "INCA-R Mtb strains", "test": "microbe, parasite or virus in culture", "assay_type": "cell-based, Mycobacterium tuberculosis"}, "[5]": {"tested_on": "Mtb", "conditions": "rising up to; ref Zhao et al., 2014; cited from earlier work"}}}
{"smiles": "Nc1ccc(C(=O)O)c(O)c1", "note": "[PAS, para-aminosalicylic acid]", "values": [{"measurement": "MIC, folC (E153G)", "setting": "[1]", "result": 32, "unit": "mg/L"}, {"measurement": "MIC, folC (I43T)", "setting": "[2]", "result": 32, "unit": "mg/L"}, {"measurement": "MIC, thyX (−16 C->T)", "setting": "[3]", "result": 16, "unit": "mg/L"}, {"measurement": "elevation of MIC in INCA-R strains (loss of potency)", "setting": "[4]", "result": 32, "unit": "fold"}, {"measurement": "MIC", "setting": "[4]; Mycobacterium tuberculosis, read-out: MIC of INCA-R strains", "result": 16, "unit": "mg/L"}, {"measurement": "MIC values of PAS-resistant mutants", "setting": "[5]", "result": "up to 8 μg/mL"}]}
